From patent US20160242416A1, “FUNGICIDAL ISOXAZOLINE CARBINOLS” (E I DU PONT DE NEMOURS AND COMPANY, priority 2015, published 2016)
Like-named read-outs stand apart in the source and are kept apart here.

Key:
Plasmopara viticola = assay: Test A: grape downy mildew, preventive spray on grape seedlings; format: in vivo; conditions: 100 = 100% disease control, 0 = no control
From the text: A dash (-) indicates no test results.

Phytophthora infestans = format: in vivo; conditions: 100 = 100% disease control; for Test C rating (% disease control): tomato late blight, 0 = no control; for Test C disease control rating: 50 ppm test solution (asterisked compounds), 0 = no control relative to controls
Botrytis cinerea = assay: Test B: gray mold, preventive spray on tomato seedlings; conditions: 100 = 100% disease control; for Test B rating (% disease control): gray mold on tomato, 0 = no control; for Test B disease control rating: 50 ppm test solution (asterisked compounds), 0 = no control relative to controls
[1] = tested on: Puccinia recondita f sp. tritici; assay: Test F: wheat leaf rust, preventive spray on wheat seedlings; conditions: 100 = 100% disease control; for Test F rating (% disease control): wheat leaf rust, 0 = no control; for Test F disease control rating: 50 ppm test solution (asterisked compounds), 0 = no control relative to controls
Zymoseptoria tritici = assay: Test E: wheat leaf blotch, preventive spray on wheat seedlings; conditions: 100 = 100% disease control; for Test E rating (% disease control): wheat leaf blotch, 0 = no control; for Test E disease control rating: 50 ppm test solution (asterisked compounds), 0 = no control relative to controls
Stagonospora nodorum = assay: Test D: wheat glume blotch, preventive spray on wheat seedlings; conditions: 100 = 100% disease control; for Test D rating (% disease control): wheat glume blotch, 0 = no control; for Test D disease control rating: 50 ppm test solution (asterisked compounds), 0 = no control relative to controls
From the text: General protocol for preparing test solutions for Tests A-G: the test compounds were first dissolved in acetone in an amount equal to 3% of the final volume and then suspended at the desired concentration (in ppm) in acetone and purified water (50/50 mix by volume) containing 250 ppm of the surfactant PEG400 (polyhydric alcohol esters). The resulting test suspensions were then used in Tests A-G. Compounds were sprayed at a concentration of 50 ppm (*) or 10 ppm to the point of run-off on the test plants, the equivalent of a rate of 200 g/ha or 40 g/ha, respectively.
The test solution was sprayed to the point of run-off on wheat seedlings. The following day the seedlings were inoculated with a spore suspension of Stagonospora nodorum (also known as Septoria nodorum; the causal agent of wheat glume blotch) and incubated in a saturated atmosphere at 20° C. for 48 h, and then moved to a growth chamber at 20° C. for 6 days, after which time visual disease ratings were made.
Compounds with an asterisks (*) were applied at a concentration of 50 ppm, otherwise test solutions were applied at 10 ppm.

[2] = tested on: Erysiphe graminis f sp. tritici; assay: Test G: wheat powdery mildew, preventive spray on wheat seedlings; conditions: 100 = 100% disease control; for Test G rating (% disease control): wheat powdery mildew, 0 = no control; for Test G disease control rating: 50 ppm test solution (asterisked compounds), 0 = no control relative to controls

Row | SMILES | Test C rating (% disease control) (Phytophthora infestans; 50 ppm (asterisk)) | Test B rating (% disease control) (Botrytis cinerea; 50 ppm (asterisk)) | Test F rating (% disease control) ([1]; 50 ppm (asterisk)) | Test E rating (% disease control) (Zymoseptoria tritici; 50 ppm (asterisk)) | Test D rating (% disease control) (Stagonospora nodorum; 50 ppm (asterisk)) | Test G rating (% disease control) ([2]; 50 ppm (asterisk)) | further results
1 | CCC(O)(Cn1cncn1)C1=NOC(c2ccc(Cl)cc2)C1 (mixture of isomers) [Compound 34] | 0% | 0% | 53% | 0% | 99% | 100% | Test A rating (% disease control) (Plasmopara viticola; 50 ppm (asterisk)): 34%
2 | OC(Cc1ccc(Cl)cc1)(Cn1cncn1)C1=NOC(c2ccc(Cl)cc2)C1 (single isomer, unassigned) [Compound 93] | – | – | – | – | – | – | Test A rating (% disease control) (Plasmopara viticola; 10 ppm): 0%; Test C rating (% disease control) (Phytophthora infestans; 10 ppm): 0%; Test B rating (% disease control) (Botrytis cinerea; 10 ppm): 0%; Test F rating (% disease control) ([1]; 10 ppm): 100%; Test E rating (% disease control) (Zymoseptoria tritici; 10 ppm): 4%; Test D rating (% disease control) (Stagonospora nodorum; 10 ppm): 99%; Test G rating (% disease control) ([2]; 10 ppm): 100%
3 | OC(Cn1cncn1)(C1=NOC(c2ccccc2)C1)c1ccccc1 (mixture of isomers) [Compound 115] | 0% | 51% | 68% | 0% | 100% | 99% | –
4 | OC(Cn1cncn1)(C1=NOC(COc2ccc(C(F)(F)F)cc2)C1)c1ccc(Cl)cc1 (single isomer, unassigned) [Compound 64] | – | – | – | – | – | – | Test A rating (% disease control) (Plasmopara viticola; 10 ppm): 12%; Test C rating (% disease control) (Phytophthora infestans; 10 ppm): 0%; Test B rating (% disease control) (Botrytis cinerea; 10 ppm): 0%; Test F rating (% disease control) ([1]; 10 ppm): 80%; Test E rating (% disease control) (Zymoseptoria tritici; 10 ppm): 2%; Test D rating (% disease control) (Stagonospora nodorum; 10 ppm): 50%; Test G rating (% disease control) ([2]; 10 ppm): 94%
5 | OC(Cn1cncn1)(C1=NOC(c2ccccc2F)C1)c1ccccc1 (mixture of isomers) [Compound 118] | 0% | 68% | 89% | 0% | 100% | 99% | –
6 | CC1(c2ccc(Cl)cc2)CC(C(O)(Cn2cncn2)c2ccc(Cl)cc2)=NO1 (single isomer, unassigned) [Compound 213] | 0% | 7% | 99% | 0% | 52% | 96% | –
7 | OC(Cn1cncn1)(C1=NOC(c2ccc(Cl)cc2)C1)c1ccc(F)cc1F (single isomer, unassigned) [Compound 130] | 0% | 14% | 100% | 11% | 100% | 100% | –
8 | OC(Cn1cncn1)(C1=NOC(c2c(F)cccc2F)C1)c1ccccc1 (mixture of isomers) [Compound 1] | 0% | 0% | 99% | 18% | 99% | 100% | –
9 | CC(C)(C)C(O)(Cn1cncn1)C1=NOC(c2ccc(Cl)cc2)C1 (single isomer, unassigned) [Compound 132] | 0% | 99% | 100% | 81% | 100% | 100% | –
10 | CC1(c2ccc(Cl)cc2)CC(C(O)(Cn2cncn2)c2ccccc2)=NO1 (single isomer, unassigned) [Compound 210] | 0% | 0% | 100% | 41% | 100% | 100% | –
11 | OC(Cn1cncn1)(C1=NOC(c2ccc(Cl)cc2)C1)c1ccc(Cl)cc1 (single isomer, unassigned) [Compound 120] | 0% | 0% | 100% | 8% | 95% | 98% | –
12 | OC(Cn1cncn1)(C1=NOC(Cc2ccccc2)C1)c1ccc(Cl)cc1 (single isomer, unassigned) [Compound 136] | 0% | 92% | 100% | 83% | 100% | 100% | –
13 | OC(Cn1cncn1)(C1=NOC(c2ccccc2)(C(F)(F)F)C1)c1ccc(Cl)cc1 (single isomer, unassigned) [Compound 214] | – | – | – | – | – | – | Test C disease control rating (Phytophthora infestans): 0%; Test B disease control rating (Botrytis cinerea): 0%; Test F disease control rating [1]: 25%; Test E disease control rating (Zymoseptoria tritici): 1%; Test D disease control rating (Stagonospora nodorum): 0%; Test G disease control rating [2]: 99%
14 | CC(C)(C)C1CC(C(O)(Cn2cncn2)c2ccccc2)=NO1 (single isomer, unassigned) [Compound 125] | 0% | 0% | 28% | 0% | 0% | 89% | –
15 | OC(Cn1cncn1)(C1=NOC(c2ccccc2)(C(F)(F)F)C1)c1ccc(Cl)cc1 (single isomer, unassigned) [Compound 215] | – | – | – | – | – | – | Test C disease control rating (Phytophthora infestans): 0%; Test B disease control rating (Botrytis cinerea): 0%; Test F disease control rating [1]: 100%; Test E disease control rating (Zymoseptoria tritici): 0%; Test D disease control rating (Stagonospora nodorum): 0%; Test G disease control rating [2]: 100%
16 | OC(Cn1cncn1)(C1=NOC(c2ccc(Cl)cc2)C1)c1ccc(F)cc1F (single isomer, unassigned) [Compound 131] | 0% | 0% | 100% | 5% | 100% | 100% | –
17 | OC(Cn1cncn1)(C1=NOC(c2ccc(F)cc2)C1)c1ccc(F)cc1 (single isomer, unassigned) [Compound 122] | 0% | 0% | 100% | 77% | 100% | 100% | –
18 | OC(Cn1cncn1)(C1=NOC(c2ccc(Cl)cc2)C1)c1ccc(Cl)cc1 (single isomer, unassigned) [Compound 123] | 0% | 56% | 100% | 100% | 100% | 100% | –
19 | CC1(c2ccc(Cl)cc2)CC(C(O)(Cn2cncn2)c2ccc(Cl)cc2)=NO1 (single isomer, unassigned) [Compound 212] | 0% | 28% | 100% | 0% | 96% | 100% | –
